Tests used:
[1] = Fasted state simulated gastric fluid (FaSSGF) kinetic solubility assay; format: physicochemical; details: kinetic solubility in FaSSGF, 0-24 h
Description: (§1) The content of opicapone in kinetic solubility studies was analysed by HPLC coupled to a UV/Vis detector (Waters series, USA). A C18 column was used. The mobile phase consisted of 0.1% o-phophoric acid and acetonitrile (68:32 v/v).
Kinetic solubility studies on the opicapone solid dispersion were performed at room temperature at a loading equivalent to˜10 mg of opicapone per mL of FaSSGF, in a total of 5 mL of medium. Samples were tested at 0, 0.5, 1, 2, 4 and 24 hours (Klein, AAPS J., 2010, 12, 397-406).
(§2) Area under the Concentration Curve (AUC), Cmax and other pharmacokinetic parameters were calculated using GraphPad Prism 7 for Windows (GraphPad Software, USA).

[2] = In vivo pharmacokinetics after oral administration; details: male Wistar rats, 3 mg/kg of opicapone, plasma
Description: The pharmacokinetics of solid dispersions of amorphous opicapone were evaluated in male Wistar rats, after oral administration of Sample 1, 4 or 6, or a control sample of micronised crystalline opicapone, at a dose of 3 mg/kg of opicapone. The exposure of these solid dispersions, formulated as a HPMC suspensions (50 mg of opicapone per 100 mL of 0.2% HPMC), were compared with the exposure of micronised crystalline opicapone, at a dose of 3 mg/kg of opicapone.
During the studies, blood was collected at different time points, from tail vein, spun at 1500×g in a refrigerated centrifuge (4° C.) for 15 min, and the plasma obtained was stored at −80° C. until further analysis. The plasma samples collected from twenty animals (140 samples), were analysed for opicapone exposure. The bioanalysis involved the use of LC-MS/MS after plasma precipitation.

[3] = Particle size distribution (circle equivalent diameter) by SEM; format: physicochemical; details: particle size distribution (equivalent circular diameter) after micronisation, MC JETMILL 200
Description: A Phenom Pro-X Electron microscope (PhenomWorld, Thermo Fisher Scientific, USA) equipped with a CeB6 electron source and backscatter electron detector was used to determine the morphology and particle size of the samples.
The powder was placed on conductive adhesive tape. The holder for non-conductive samples was used. The excess of sample (loosely bound to the tape) was removed using compressed air.
Particle morphology was assessed by Automated Image Mapping software and particle size determination was made by Particlemetric software.

[4] = Fasted state simulated intestinal fluid (FaSSIF) kinetic solubility assay; format: physicochemical; details: kinetic solubility in FaSSIF, 0-24 h
Description: as §1
Kinetic solubility studies on the opicapone solid dispersion were performed at room temperature at a loading equivalent to˜75 mg of opicapone per mL of FaSSIF, in a total of 5 mL of medium. Samples were tested at 0, 0.5, 1, 2, 4 and 24 hours (Klein, AAPS J., 2010, 12, 397-406).
as §2

Compound `Cc1c(Cl)c(C)[n+]([O-])c(Cl)c1-c1noc(-c2cc(O)c(O)c([N+](=O)[O-])c2)n1` [Opicapone Control, opicapone] has an AUC ([1]; Experiment 1) of 7.625 µg·h/mL, a Cmax ([1]; Experiment 1) of 300 ng/mL and an AUC ([1]; Experiment 2) of 5.75 µg·h/mL. The Cmax ([1]; Experiment 2) was 300 ng/mL, the tmax ([1]; Experiment 2) was 24 h and the AUC ([1]; Experiment 3) was 5.86 µg·h/mL. For the same compound, the Cmax ([1]; Experiment 3) was 260 ng/mL, the tmax ([1]; Experiment 3) was 24 h and the tlast [2] was 8 h. It also gave an AUC(0-t) ([2]; rat) of 1.4 µg·h/mL, a Cmax ([2]; rat) of 379 ng/mL and a tmax ([2]; rat) of 2 h. For the same compound, the concentration at 8 h ([2]; rat, read-out: Clast) was 78.6 ng/mL, the D10 [3] was no less than 4 μm and the D50 [3] was 10-40 μm. The D95 [3] was no more than 80 μm, the tmax ([4]; room temperature, Experiment 1) was 24 h and the AUC ([4]; Experiment 1) was 1589 µg·h/mL. For the same compound, the Cmax ([4]; Experiment 1) was 69000 ng/mL, the AUC ([4]; Experiment 2) was 1310 µg·h/mL and the Cmax ([4]; Experiment 2) was 86000 ng/mL. For the same compound, the tmax ([4]; Experiment 2) was 2 h, the AUC ([4]; Experiment 3) was 1400 µg·h/mL and the Cmax ([4]; Experiment 3) was 89000 ng/mL.

— patent US20230241046A1, “SOLID DISPERSION OF OPICAPONE” (BIAL - PORTELA & CA, S.A., priority 2020, published 2023)
